From paper PMC3969094 (Journal of Medicinal Chemistry, 2014)
Positions of bridges follow the written chain, without caps; N, C: chain ends. Non-standard residues stand in square brackets, D forms with d. Residues, ends and D or L forms follow the SMILES beside them. *: point of attachment. FITC = O=C1OC2(c3ccc(O)cc3Oc3cc(O)ccc32)c2ccc(NC(=S)*)cc21; Phe(3,4-Cl2) = N[C@@H](Cc1ccc(Cl)c(Cl)c1)C(=O)O; S5 = C=CCCC[C@](C)(N)C(=O)O; Ahx = NCCCCCC(=O)O

Key:
[1] = target: RPA70N (Homo sapiens, UniProt P27694); assay: FPA direct binding of FITC-labeled peptides; details: stapled peptides, versus phenylalanine counterparts
[2] = target: RPA70C/32D/14; assay: Direct binding FPA assay, selectivity; details: read-out: Kd for RPA70C/32D/14, FITC-labeled stapled peptide

Structure (SMILES)	increase in affinity by dichlorophenylalanine substitution [1] [fold]	Kd [2] [nM]
CC(C)C[C@H](NC(=O)[C@H](C)NC(=O)[C@H](Cc1ccc(Cl)c(Cl)c1)NC(=O)[C@H](Cc1c[nH]c2ccccc12)NC(=O)[C@]1(C)CCCC=CCCC[C@](C)(NC(=O)[C@H](C)NC(=O)[C@@H](NC(=O)[C@H](Cc2ccccc2)NC(=O)[C@H](CC(N)=O)NC(=O)CCCCCNC(=S)Nc2ccc3c(c2)C(=O)OC32c3ccc(O)cc3Oc3cc(O)ccc32)[C@@H](C)O)C(=O)N[C@@H](CC(=O)O)C(=O)N[C@@H](CC(C)C)C(=O)N[C@@H](CCC(=O)O)C(=O)N1)C(N)=O [Peptide-38] ({FITC-Ahx}-NFTA[S5]DLE[S5]W[Phe(3,4-Cl2)]AL-NH2; staple 5-9)	31	–
CC(C)C[C@H](NC(=O)[C@H](C)NC(=O)[C@H](Cc1ccc(Cl)c(Cl)c1)NC(=O)[C@H](Cc1c[nH]c2ccccc12)NC(=O)[C@]1(C)CCCC=CCCC[C@](C)(NC(=O)[C@H](C)NC(=O)[C@@H](NC(=O)[C@H](Cc2ccccc2)NC(=O)[C@H](CC(N)=O)NC(=O)CCCCCNC(=S)Nc2ccc3c(c2)C(=O)OC32c3ccc(O)cc3Oc3cc(O)ccc32)[C@@H](C)O)C(=O)N[C@@H](CC(N)=O)C(=O)N[C@@H](CC(C)C)C(=O)N[C@@H](CCC(=O)O)C(=O)N1)C(N)=O [Peptide-39] ({FITC-Ahx}-NFTA[S5]NLE[S5]W[Phe(3,4-Cl2)]AL-NH2; staple 5-9)	175	2400
